This passage reports IC50 results from patent publication US20240148821A1, “PHARMACEUTICAL USE OF CYCLIC PEPTIDE COMPOUND” (CHUGAI SEIYAKU KABUSHIKI KAISHA, priority 2021, published 2024).

SMILES strings stand for the structures. Numbered stars: 1 amine (or outer) side, 2 acyl side, 3 side chain; on linkers, the order of the positions; unused ones are H or OH. Bridge positions count the residues as written; N and C are the ends. Square brackets hold non-standard residues; d marks the D form. Peptide text beside a SMILES is read from it. * marks the point of attachment. hPhe(3,5-F2-4-CF3) = N[C@@H](CCc1cc(F)c(C(F)(F)F)c(F)c1)C(=O)O; hPhe(3-Cl-4-CF3) = N[C@@H](CCc1ccc(C(F)(F)F)c(Cl)c1)C(=O)O; hPhe(3-F,4-CF3) = N[C@@H](CCc1ccc(C(F)(F)F)c(F)c1)C(=O)O; NMePhe(4-Cl) = CN[C@@H](Cc1ccc(Cl)cc1)C(=O)O; NMePhe(4-Me) = CN[C@@H](Cc1ccc(C)cc1)C(=O)O; X10 = C#Cc1cccc(C[C@H](N[*:1])C(=O)[*:2])c1; NMedβ3hAla = C[C@H](CC(=O)[*:2])N(C)[*:1]; NMeGly(cPent) = CN[C@H](C(=O)O)C1CCCC1; NMeGly(cBu) = CN[C@H](C(=O)O)C1CCC1; NMeCha = CN[C@@H](CC1CCCCC1)C(=O)O; Hyp = O=C(O)[C@@H]1C[C@@H](O)CN1; NMeI = CC[C@H](C)[C@H](NC)C(=O)O; NMeD = CN[C@@H](CC(=O)O)C(=O)O; NMeL = CN[C@@H](CC(C)C)C(=O)O; d(β3hA) = C[C@@H](N)CC(=O)O; NMeC = CN[C@@H](CS)C(=O)O; NMeS = CN[C@@H](CO)C(=O)O; NPhGly = O=C(O)CNc1ccccc1; NMeA = CN[C@@H](C)C(=O)O; NMeAib = CNC(C)(C)C(=O)O; Nle = CCCC[C@H](N)C(=O)O; Piperidide = C1CCN(*)CC1; Ac5c = NC1(C(=O)O)CCCC1; Aze = O=C(O)[C@@H]1CCN1; Bn = c1ccc(C*)cc1; Sar = CNCC(=O)O; Propyl = CCC*

Test [1] has as its target protein-protein interaction between Kras and SOS1 (biotin-tagged human Kras loaded with GDP, His-tagged human SOS1) (Homo sapiens (Human), UniProt P01116, G12D). Nature of the test: Protein-protein interaction inhibition between Kras and SOS1 (KrasG12D-SOS PPI) using AlphaScreen.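 Note: kras produced in E. coli, Ni-coupled donor beads and streptavidin acceptor beads, excitation 680 nm with emission detected at 520–620 nm via singlet oxygen transfer.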 The format is biochemical. Conditions: AlphaScreen; biotin-tagged human Kras loaded with GDP, His-tagged human SOS1; read-out: KRAS G12D-SOS PPI IC50. In general terms: Alpha assays give light when donor and acceptor beads are brought close together.

In test [2] the test system is Human pancreatic cancer cell line AsPC-1 (G12D mutation Kras). Nature of the test: AsPC-1 cell growth inhibition (AsPC-1 CGI). In kind it is cell-based. To be noted: read-out: AsPC-1 cell growth inhibition, 50% growth inhibitory concentration (IC50 value); 96 hours, CellTiter-Glo, values classified in ranges.
Protocol: Test compounds were serially dilated with dimethyl sulfoxide, and 200 nL was then dispensed to a U-bottom 96-well plate using Labcyte Echo. […] The cell suspension was dispensed to a. plate containing a test compound at 100 μL per well and incubated at 37° C. in a 5% carbon dioxide gas incubator. 96 hours later, 80 μL of CellTiter-Glo (Promega) was added to each well and fluorescence was measured.

Take `CC[C@H](C)[C@@H]1NC(=O)[C@H](CC(C)C)N(C)C(=O)C[C@@H](C)NC(=O)[C@H](CC(C)C)N(C)C(=O)C2(CCCC2)NC(=O)[C@@H]2C[C@@H](OCc3ccccc3)CN2C(=O)[C@H](CCc2ccc(C(F)(F)F)c(F)c2)NC(=O)CN(C)C(=O)[C@H](CC2CCCCC2)N(C)C(=O)CN(C)C(=O)CN(C)C1=O` [Compound 2116, (3S,9S,18S,21S,25R,28S,34S,36R)-36-benzyloxy-9-(cylohexylmethyl)-3-[2-[3-fluoro-4-(trifluoromethyl)phenyl]ethyl]-21,28-diisobutyl-7,10,13,16,22,25,29-heptamethyl-18-[(1S)-1-methylpropyl]spiro[1,4,7,10,13,16,19,22,26,29,32-undecazabicyclo[32.3.0]heptatriacontane-31,1′-cyclopentane]-2,5,8,11,14,17,20,23,27,30,33-undecone] (cyclo([Ac5c][NMeL][d(β3hA)][NMeL]I[Sar][Sar][NMeCha][Sar][hPhe(3-F,4-CF3)][Hyp](Bn))): the IC50 was 0.11 µM in test [1] and above 0.5 µM in test [2].
The corresponding values for `C#Cc1cccc(C[C@@H]2NC(=O)CN(C)C(=O)[C@H](Cc3ccc(Cl)cc3)N(C)C(=O)CN(C)C(=O)CN(C)C(=O)[C@H]([C@@H](C)CC)NC(=O)[C@H](CC(C)C)N(C)C(=O)C[C@@H](C(=O)N3CCCCC3)N(C)C(=O)[C@H](CC(C)C)NC(=O)C(C)(C)N(C)C(=O)[C@H](CCCC)NC2=O)c1` [Compound 2142, (3S,9S,12S,18S,27S,30S,34S)-9-butyl-18-[(4-chlorophenyl)methyl]-12-[(3-ethynylphenyl)methyl]-3,30-diisobutyl-1,6,6,7,16,19,22,25,31-nonamethyl-27-[(1S)-1-methylpropyl]-34-(piperidine-1-carbonyl)-1,4,7,10,13,16,19,22,25,28,31-undecazacyclotetratriacontane-2,5,8,11,14,17,20,23,26,29,32-undecone] ([NMeL]I[Sar][Sar][NMePhe(4-Cl)][Sar][X10][Nle][NMeAib]L[NMeD]-Piperidide; lactam N-11) are 0.044 µM and above 0.5 µM.
The corresponding values for `CC[C@H](C)[C@@H]1NC(=O)[C@H](C)N(C)C(=O)C[C@@H](C)N(C)C(=O)[C@H](C2CCC2)N(C)C(=O)C2(CCCC2)NC(=O)CN(c2ccccc2)C(=O)[C@H](CCc2ccc(C(F)(F)F)c(Cl)c2)NC(=O)CN(C)C(=O)[C@H](CC2CCCCC2)N(C)C(=O)CN(C)C(=O)CN(C)C1=O` [Compound 2143] (cyclo([Ac5c][NMeGly(cBu)][NMedβ3hAla][NMeA]I[Sar][Sar][NMeCha][Sar][hPhe(3-Cl-4-CF3)][NPhGly])) are 0.041 µM and above 0.5 µM.
The corresponding values for `CC[C@H](C)[C@@H]1NC(=O)[C@H](C)N(C)C(=O)C[C@@H](C)N(C)C(=O)[C@H](C2CCC2)N(C)C(=O)C(C)(C)N(C)C(=O)CN(c2ccccc2)C(=O)[C@H](CCc2ccc(C(F)(F)F)c(Cl)c2)NC(=O)CN(C)C(=O)[C@H](CC2CCCCC2)N(C)C(=O)CN(C)C(=O)CN(C)C1=O` [Compound 2145] (cyclo(I[Sar][Sar][NMeCha][Sar][hPhe(3-Cl-4-CF3)][NPhGly][NMeAib][NMeGly(cBu)][NMedβ3hAla][NMeA])) are 0.022 µM and above 0.5 µM.
In the case of `CC[C@H](C)[C@@H]1NC(=O)[C@H](C)N(C)C(=O)C[C@@H](C(=O)N2CCCCC2)N(C)C(=O)[C@H](C2CCC2)N(C)C(=O)C(C)(C)N(C)C(=O)CN(c2ccccc2)C(=O)[C@H](CCc2ccc(C(F)(F)F)c(Cl)c2)NC(=O)CN(C)C(=O)[C@H](CC2CCCCC2)N(C)C(=O)CN(C)C(=O)CN(C)C1=O` [Compound 2150] ([NMeA]I[Sar][Sar][NMeCha][Sar][hPhe(3-Cl-4-CF3)][NPhGly][NMeAib][NMeGly(cBu)][NMeD]-Piperidide; lactam N-11), the IC50 is 0.0057 µM in test [1] and above 0.5 µM in test [2].
The corresponding values for `CC[C@H](C)[C@@H]1NC(=O)[C@H](C)N(C)C(=O)C[C@@H](C(=O)N2CCCCC2)N(C)C(=O)[C@H](C2CCC2)N(C)C(=O)C2(CCCC2)NC(=O)CN(c2ccccc2)C(=O)[C@H](CCc2ccc(C(F)(F)F)c(Cl)c2)NC(=O)CN(C)C(=O)[C@H](CC2CCCCC2)N(C)C(=O)CN(C)C(=O)CN(C)C1=O` [Compound 2151] ([NMeA]I[Sar][Sar][NMeCha][Sar][hPhe(3-Cl-4-CF3)][NPhGly][Ac5c][NMeGly(cBu)][NMeD]-Piperidide; lactam N-11) are 0.0025 µM and above 0.5 µM.
The corresponding values for `CC[C@H](C)[C@@H]1NC(=O)CSC[C@@H](C(=O)N(C)C)N(C)C(=O)[C@H](C2CCCC2)N(C)C(=O)C2(CCCC2)NC(=O)[C@@H]2CCCN2C(=O)[C@H](CCc2ccc(C(F)(F)F)c(Cl)c2)NC(=O)CN(C)C(=O)[C@H](CC2CCCCC2)N(C)C(=O)CN(C)C(=O)CN(C)C1=O` [Compound 2172, (3S,9S,18S,24R,27S,33S)-18-[(2S)-butan-2-yl]-3-[2-[3-chloro-4-(trifluoromethyl)phenyl]ethyl]-9-(cyclohexylmethyl)-27-cyclopentyl-N,N,7,10,13,16,25,28-octamethyl-2,5,8,11,14,17,20,26,29,32-decaoxospiro[22-thia-1,4,7,10,13,16,19,25,28,31-decazabicyclo[31.3.0]hexatriacontane-30,1′-cyclopentane]-24-carboxamide] ({CH2CO}-I[Sar][Sar][NMeCha][Sar][hPhe(3-Cl-4-CF3)]P[Ac5c][NMeGly(cPent)][NMeC]-NMe2; thioether N-10) are 0.014 µM and above 0.5 µM.
For the compound `CC[C@H](C)[C@@H]1NC(=O)CSC[C@@H](C(=O)N(C)C)N(C)C(=O)[C@H]([C@@H](C)CC)N(C)C(=O)C2(CCCC2)NC(=O)[C@@H]2CCCN2C(=O)[C@H](CCc2ccc(C(F)(F)F)c(Cl)c2)NC(=O)CN(C)C(=O)[C@H](Cc2ccc(C)cc2)N(C)C(=O)CN(C)C(=O)CN(C)C1=O` [Compound 2173, (3S,9S,18S,24R,27S,33S)-18,27-bis[(2S)-butan-2-yl]-3-[2-[3-chloro-4-(trifluoromethyl)phenyl]ethyl]—N,N,7,10,13,16,25,28-octamethyl-9-[(4-methylphenyl)methyl]-2,5,8,11,14,17,20,26.,29,32-decaoxospiro[22-thia-1,4,7,10,13,16,19,25,28,31-decazabicyclo[31.3.0]hexatriacontane-30,1-cyclopentane]-24-carboxamide] ({CH2CO}-I[Sar][Sar][NMePhe(4-Me)][Sar][hPhe(3-Cl-4-CF3)]P[Ac5c][NMeI][NMeC]-NMe2; thioether N-10), the IC50 in test [1] is 0.006 µM; in test [2] it was above 0.5 µM.
The corresponding values for `CCCOC[C@H]1C(=O)N(C)CC(=O)N[C@@H](CCc2ccc(C(F)(F)F)c(F)c2)C(=O)N2CCC[C@H]2C(=O)NC2(CCCC2)C(=O)N(C)[C@@H](C2CCCC2)C(=O)N(C)[C@H](C(=O)N(C)C)CSCC(=O)N(C)[C@@H](CC(C)C)C(=O)N[C@@H]([C@@H](C)CC)C(=O)N(C)[C@@H](C)C(=O)N2CC[C@H]2C(=O)N1C` [Compound 2174, (3S,9S,12S,17S,20S,23S,29R,32S,38S)-20-[(2S)-butan-2-yl]-32-cyclopentyl-3-[2-[3-fluoro-4-(trifluoromethyl)phenyl]ethyl]-N,N,7,10,17,18,24,30,33-nonamethyl-23-(2-methylpropyl)-2,5,8,11,16,19,22,25,31,34,37-undecaoxo-9-(propoxymethyl)spiro[27-thia-1,4,7,10,15,18,21,24,30,33,36-undecazatricyclo[36.3.0.012,15]hentetracontane-35,1′-cyclopentane)-29-carboxamide] ({CH2CO}-[NMeL]I[NMeA][Aze][NMeS](Propyl)[Sar][hPhe(3-F,4-CF3)]P[Ac5c][NMeGly(cPent)][NMeC]-NMe2; thioether N-11) are 0.87 µM and above 0.5 µM.
In the same order, the values of `CC[C@H](C)[C@@H]1NC(=O)[C@H](CC(C)C)N(C)C(=O)CSC[C@@H](C(=O)N(C)C)N(C)C(=O)[C@H](C2CCCC2)N(C)C(=O)C2(CCCC2)NC(=O)[C@@H]2CCCN2C(=O)[C@H](CCc2ccc(C(F)(F)F)c(Cl)c2)NC(=O)CN(C)C(=O)[C@H](CC2CCCCC2)N(C)C(=O)CN(C)C(=O)CN(C)C1=O` [Compound 2175] ({CH2CO}-[NMeL]I[Sar][Sar][NMeCha][Sar][hPhe(3-Cl-4-CF3)]P[Ac5c][NMeGly(cPent)][NMeC]-NMe2; thioether N-11) are 0.18 µM and above 0.5 µM.
In the same order, the values of `CCO[C@@H]1C[C@H]2C(=O)NC3(CCCC3)C(=O)N(C)[C@@H](C3CCCC3)C(=O)N(C)[C@H](C(=O)N(C)C)CSCC(=O)N(C)[C@@H](CC(C)C)C(=O)N[C@@H]([C@@H](C)CC)C(=O)N(C)[C@@H](C)C(=O)N3CC[C@H]3C(=O)N(C)[C@@H](CC3CCCCC3)C(=O)N(C)CC(=O)N[C@@H](CCc3cc(F)c(C(F)(F)F)c(F)c3)C(=O)N2C1` [Compound 2176, (3S,9S,12S,17S,20S,23S,29R,32S,38S,40R)-20-[(2S)-butan-2-yl]-9-(cyclohexylmethyl)-32-cyclopentyl-3-[2-[3,5-difluoro-4-(trifluoromethyl)phenyl]ethyl]-40-ethoxy-N,N,7,10,17,18,24,30,33-nonamethyl-23(2-methylpropyl)-2,5,8,11,16,19,22,25,31,34,37-undecaoxospiro[27-thia-1,4,7,10,15,18,21,24,30,33,36-undecazatricyclo[36.3.0.012,15]hentetracontane-35,1′-cyclopentane]-29-carboxamide] ({CH2CO}-[NMeL]I[NMeA][Aze][NMeCha][Sar][hPhe(3,5-F2-4-CF3)][Hyp](Et)[Ac5c][NMeGly(cPent)][NMeC]-NMe2; thioether N-11) are 0.12 µM and above 0.5 µM.
